Experimental data: paper PMC8238916 (Nature chemical biology, 2021)

T1: RING1B RING domain (residues 10-116) as it stands in RING1B-BMI1f (UniProt Q99496 10-116)
T1 sequence: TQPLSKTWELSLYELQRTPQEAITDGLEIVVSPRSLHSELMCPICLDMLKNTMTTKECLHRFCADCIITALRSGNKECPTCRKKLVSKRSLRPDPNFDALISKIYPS


Legend:
TEX cells [1] = assay: Cell viability assay; format: cell-based, human
TEX cells [2] = assay: Gene expression; format: cell-based, human; conditions: 96 hours
TEX cells [3] = assay: Western blot in TEX cells; format: cell-based, human; conditions: 4 days
[4] = molecular target: T1, RING1B RING domain (residues 10-116) as …; assay: crystal structure

| Molecule | cytotoxicity compared with RB-3 (TEX cells [1]) | C/EBPα and CD34 expression (TEX cells [2]) | H2Aub, BMI1 and H2A levels (TEX cells [3]) | binding result [4] |
| --- | --- | --- | --- | --- |
| COc1cc(Br)c(Nc2nc(-c3c(C)nc4ncccn34)cs2)c(Br)c1 [PTC209] | more cytotoxic to TEX cells than RB-3 | had no effect on C/EBPα and CD34 expression | decreased H2Aub, reduced BMI1 level and, unexpectedly, reduced H2A levels |  |
| BMI1 RING domain (residues 1-104) as it stands in RING1B-BMI1f (domain or fragment) MHRTTRIKITELNPHLMCVLCGGYFIDATTIIECLHSFCKTCIVRYLETSKYCPICDVQVHKTRPLLNIRSDKTLQDIVYKLVPGLFKNEMKRRRDFYAAHPSA |  |  |  | binds |
